We go through one compound from EP0739894A1, “THIAZOLINE DERIVATIVE” (TAISHO PHARMACEUTICAL CO. LTD, priority 1994, dated 1995).

Converted amounts (≈) assume the structure as drawn.

The test system of one data set is blood platelet. As to the kind of experiment: Human in vitro blood platelet aggregation inhibition test (ADP-induced, PRP). The data set is classed as cell-based. As to conditions: 0.05 h. As for the experimental part:
Citrated blood (the volume ratio of 3.13 % sodium citrate solution and blood is 1:9) was collected from the cubital vein of a healthy human who had not received any drugs known to affect the function of blood platelet within 2 weeks prior to starting the test, and centrifuged at 120 x g at room temperature for 15 minutes. The resulting supernatant was separated to give platelet rich plasma (PRP), the remaining precipitate was further centrifuged at 1500 x g for 10 minutes, and the resulting supernatant was separated to give platelet poor plasma (PPP).
The blood platelet counts of PRP were adjusted to 50 ∼ 60 × 10^4/µl by diluting with PPP.
Blood platelet aggregation was determined according to the method of Born G.V.R., [Nature, vol. 194, page 927 (1962)] using adenosine diphosphate (produced by Sigma Co.; hereinafter referred to as "ADP") as an aggregation-inducing substance. That is, a solution of the compound of Formula (I) as a test drug in dimethyl sulfoxide was adjusted to the desired concentration with a physiological saline solution. 25 µl of the solution was added to 250 µl of PRP and incubated at 37°C for 3 minutes, and 25 µl of ADP (final concentration : 7 µM) was added thereto. […]

The nature of data set [1]: Solubility test in Britton-Robinson buffered solution, HPLC. The note with it: britton-robinson buffer, aqueous buffer; Britton - Robinson broad buffered solution pH 4, ionic strength 0.125, 25°C. In kind it is physicochemical. On the procedure:
(§1) Solubility and stability tests were carried out according to the method of R.H. Blythe et al [J. Pharm. Sci., vol. 66, page 785 (1977)].
A Britton - Robinson broad buffered solution (pH 4) was prepared, and adjusted to 0.125 of the ionic strength by adding sodium chloride. An excess amount of Compound 3 was added to the resulting solution and dissolved with heating, and then after stirring at 25°C for a desired time, the solubility which became constant was measured by HPLC under the following conditions. • Column : TSK-Gel, ODS-80TM, 4φ × 150 mm • Column temperature : 50°C • Mobile phase : Water : CH3CN : SDS : phosphoric acid = 500:500:3:1 • Detection wave length : 246 nm • Flow rate : 1.0 ml/min. • Injection amount : 10 µl

Data set [2] can be described thus: Stability test in phosphate buffer, decomposition rate constants extrapolated to 25°C. As to conditions: phosphate buffer adjusted to pH 4.0, 20 µg/ml; estimated from rate constants of decomposition at 100°C and 65°C. The data set is classed as physicochemical. On the procedure:
as §1
A phosphate buffer (pH 7) (0.1M disodium hydrogenphosphate + 0.1M sodium dihydrogenphosphate) was prepared, and adjusted to pH 4.0 with phosphoric acid. Compound 3 was added to the buffered solution at the concentration of 20 µg/ml, and which was used as a test solution. The content of Compound 3 in the test solution stored at 100°C and 65°C respectively was determined, and the rate constant of decomposition at each temperature was calculated. As a result, it was estimated that the term for remaining a 95% content of Compound 3 at 25°C was 17.6 years.

The term IC50 denotes the concentration that gives 50% inhibition. One may read the solubility as the dissolved amount per volume that the medium holds. Compound `Cc1c(C(=O)NCCC(=O)O)sc(=NC(=O)c2ccc(C(=N)N3CCN(c4ccccn4)CC3)cc2)n1C` [Compound 3, N-(2-Carboxyethyl)-2-{4-[4-(pyridin-2-yl)piperadinylimidoyl]benzoylimino}-3,4-dimethyl-3H-thiazoline-5-carboxamide] registered an IC50 with blood platelet of 21.5 nM. The compound further gave a solubility in data set [1] of 4300 µg/mL (≈ 8.03 mM). In data set [2], the “term for remaining a 95% content at 25°C” value is reported as 17.6 years.
